Measured values reported in US4863713A, “Method and system for administering therapeutic and diagnostic agents” (priority 1986, dated 1989).

Assays:
[1] = test system: KHJJ adenocarcinoma tumor; experiment: Tumor imaging and biodistribution after WC3A11, clearing agent and radiolabelled chelate (Example 6); assay type: in vivo, Balb/c mice
Experimental: Three hours later, a whole-body scan, using computer digitation of the whole-body image, was performed on the animals.

[2] = Whole body retention of radionuclide 24 hours after antibody/chelate complex (Table 1); assay type: in vivo; details: WC3A11 antibody; vs less tightly bound In-TBEDTA
[3] = test system: KHJJ adenocarcinoma tumor; experiment: Tumor targeting, first study: antibody complexed with L-benzyl-EDTA-111In, 24 h biodistribution; assay type: in vivo, Balb/C mice
Experimental: (§1) This example examines the targeting of ^111 In in animal tumors, according to the method of the invention. Balb/C mice were prepared with a KHJJ adenocarcinoma tumor implants in the flank. A hybridoma cell line designated CHA255 specific against L-benzyl-EDTA-In was prepared by methods similar to those described in Example II, using as an immunogen, an L-benzyl-EDTA-In (para-nitrophenolbenzyl-EDTA-In) group derivatized in KLH.
In a first study, a group of three mice were initially injected with 100 ug (about 0.7 nmole) of the CHA255 antibody complexed with L-benzyl-EDTA-^111 In compound. Twenty four hours later, the animals were sacrificed, and examined for ^111 In levels in the blood, tumor, and several organs which are listed in Table 3A. The radioactivity levels were calculated in terms of percent of total radioactivity per gram tissue. The average of values obtained for three mice, and standard deviations, are given to the middle column in Table 2A. Tumor/organ (T/O) ratios are shown at the right the table.

[4] = test system: KHJJ adenocarcinoma tumor; experiment: Tumor targeting, second study: antibody 23 h prior to hapten, 1 h post hapten biodistribution; assay type: in vivo, Balb/C mice
Experimental: as §1
In a second study, the antibody alone was administered to each of three animals, and allowed to localize for 23 hours, at which time the L-benzyl-EDTA-^111 In compound was administered. One hour later the animals were sacrificed and again examined for radioactivity levels.

[5] = test system: KHJJ adenocarcinoma tumor; experiment: Tumor targeting, third study: antibody, clearing agent, then hapten; 3 h post hapten biodistribution; assay type: in vivo, Balb/C mice
Experimental: as §1
A third study examined the degree of tumor localization achievable by an antibody, antibody clearance, and compound administration regimen carried out in accordance with the invention. The CHA255 antibody was administered to each of three animals and allowed to localize for 24 hours, at which time the antibody was cleared from the bloodstream by administration of a clearing agent consisting of transferring derivatized with L-benzyl-EDTA-In. One hour later, the L-benzyl-EDTA-^111 In compound was administered, and the animals sacrificed after an additional three hours.

[6] = Whole body retention of antibody complexes of EDTA-111In or 57Co compounds (Example 4); assay type: in vivo, Balb/C mice; details: WC3A11 complex
Experimental: EDTA and BABE-EDTA were complexed with ^111 In and bleomycin, with ^57 Co, as in Example 1. […] BLEDTA-IV-^111 In, a bleomycin-EDTA-In compound containing EDTA linked to bleomycin through a dithiobutane spacer, was prepared as described in co-owned patent application for "Bleomycin Conjugates and Methods". TBEDTA-^111 In was prepared as in Example 1. WC3A11 antibody complexes were formed by incubating the WC3A11 antibody from Example 2 with a selected ^111 In cpm amount of (a) ^111 -In-EDTA, (b) ^111 In-BABE-EDTA, (c) BLEDTA-II-^111 In, (d) BL-^57 Co. (e) BLEDTA-IV-^111 In, or (f) TBEDTA-^111 In.
Each of the antibody/EDTA-^111 In or ^57 Co complexes (a)-(f) was subjected intravenously to each of three Balb/C mice, in an amount between about 200-800 μg per animal. Twenty-four hours after the injection, the total body radioactivity of ^111 In was measured in a dual-probe scintillation counter. The values were averaged for the three animals. […] By contrast, the antibody complexes of compounds (e) and (f) (both of which contain a thiobutane-BABE-EDTA moiety) were retained to more than 30% after 24 hours, at an initial dose of about 180 μg antibody, and to greater than about 70% of an initial antibody dose of about 800 μg antibody.

avidin = avidin (Gallus gallus, UniProt P02701); experiment: Binding of biotinylated chelate to avidin
Chain of avidin (P02701 25-152): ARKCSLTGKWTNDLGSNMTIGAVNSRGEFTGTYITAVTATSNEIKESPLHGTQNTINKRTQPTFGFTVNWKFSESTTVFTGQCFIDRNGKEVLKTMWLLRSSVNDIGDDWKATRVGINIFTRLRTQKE
Description: To illustrate a derivatization reaction used in preparing a epitopic compound, the above bifunctional chelates can be coupled to a biotin moiety, to produce of epitopic biotin chelate capable of specific, high-affinity binding to avidin. In one coupling method, a bifunctional chelate having a free-end amine is reacted with an N-hydroxysuccinamide (NHS) ester of biotin, to link the biotin to the chelate amine through an amide linkage. The chelate amine may be formed from BABE-EDTA, for example, by amination in concentrated aqueous ammonium, and the NHS biotin ester is commercially available. […] Other active agents can be biotinylated or derivatized with carbohydrate or haptenic molecules in a similar manner.

Question: Which “whole-body scan, label localization at 3 hours (in words)” value ([1]; FIG. 3A, 3 hours) does the source give for `O=C([O-])CN(CC(=O)[O-])CC(Cc1ccc(NC(=O)CSCCCCS)cc1)N(CC(=O)[O-])CC(=O)[O-].[Co+3]` (stereo not shown) [Co-TBEDTA] here?
Answer: The value was “localization of the label in the kidneys (K), bladder (B) and flank tumor (T)”.

Question: What about the “whole-body scan at 24 hours (in words)” value ([1]; FIG. 3B, 24 hours) of the same compound?
Answer: The value was “absence of label in the bladder. Good tumor imaging with low background is still achieved”.

Question: And the “tumor uptake and tumor-to-organ ratios (in words)” value ([1]; Table 3, 3 hours)?
Answer: Its value is “high tumor-to-organ ratios for blood, and other internal organs”.

Question: What about the “whole body retention (in words)” value [2] of the same compound?
Answer: Its value is “substantially greater retention”.

Question: Which results are given for `O=C([O-])CN(CC(=O)[O-])CC(Cc1ccccc1)N(CC(=O)[O-])CC(=O)[O-].[111In+3]` [L-benzyl-EDTA-^111 In]?
Answer: radioactivity remaining in blood and localized in tumor (in words) ([3]; 24 hours, Table 2A): a large percentage of radioactivity remained in the blood, although high amounts were also tumor-localized; 24 Hr Conc, Blood ([3]; Hapten-Ab complex (CHA255), 24 h, blood): 13.41 ± 1.48 %/gm; 24 Hr Conc, Bone ([3]; Hapten-Ab complex (CHA255), 24 h, bone): 1.42 ± 0.22 %/gm; 24 Hr Conc, Gut ([3]; Hapten-Ab complex (CHA255), 24 h, gut): 2.07 ± 1.42 %/gm; 24 Hr Conc, Heart ([3]; Hapten-Ab complex (CHA255), 24 h, heart): 3.23 ± 0.48 %/gm; 24 Hr Conc, Kidneys ([3]; Hapten-Ab complex (CHA255), 24 h, kidneys): 3.73 ± 0.81 %/gm; 24 Hr Conc, Liver ([3]; Hapten-Ab complex (CHA255), 24 h, liver): 5.76 ± 0.86 %/gm; 24 Hr Conc, Lungs ([3]; Hapten-Ab complex (CHA255), 24 h, lungs): 6.50 ± 0.91 %/gm; 24 Hr Conc, Muscle ([3]; Hapten-Ab complex (CHA255), 24 h, muscle): 1.18 ± 0.16 %/gm; 24 Hr Conc, Skin ([3]; Hapten-Ab complex (CHA255), 24 h, skin): 2.35 ± 1.19 %/gm; 24 Hr Conc, Spleen ([3]; Hapten-Ab complex (CHA255), 24 h, spleen): 2.50 ± 0.37 %/gm; 24 Hr Conc, Tumor ([3]; Hapten-Ab complex (CHA255), 24 h, tumor): 11.26 ± 1.40 %/gm; T/O Ratio, Blood ([3]; Hapten-Ab complex, 24 h, tumor/blood): 0.8; T/O Ratio, Bone ([3]; Hapten-Ab complex, 24 h, tumor/bone): 8.0; T/O Ratio, Gut ([3]; Hapten-Ab complex, 24 h, tumor/gut): 7.4; T/O Ratio, Heart ([3]; Hapten-Ab complex, 24 h, tumor/heart): 3.5; T/O Ratio, Kidneys ([3]; Hapten-Ab complex, 24 h, tumor/kidneys): 3.1; T/O Ratio, Liver ([3]; Hapten-Ab complex, 24 h, tumor/liver): 2.0; T/O Ratio, Lungs ([3]; Hapten-Ab complex, 24 h, tumor/lungs): 1.7; T/O Ratio, Muscle ([3]; Hapten-Ab complex, 24 h, tumor/muscle): 9.6; T/O Ratio, Skin ([3]; Hapten-Ab complex, 24 h, tumor/skin): 5.7; T/O Ratio, Spleen ([3]; Hapten-Ab complex, 24 h, tumor/spleen): 4.5; Conc 1 Hr Post Hapten, Blood ([4]; Ab 23 Hr prior to hapten, 1 h, blood): 24.01 ± 0.80 %/gm; Conc 1 Hr Post Hapten, Bone ([4]; Ab 23 Hr prior to hapten, 1 h, bone): 1.57 ± 0.09 %/gm; Conc 1 Hr Post Hapten, Gut ([4]; Ab 23 Hr prior to hapten, 1 h, gut): 1.51 ± 0.19 %/gm; Conc 1 Hr Post Hapten, Heart ([4]; Ab 23 Hr prior to hapten, 1 h, heart): 5.40 ± 0.49 %/gm; Conc 1 Hr Post Hapten, Kidneys ([4]; Ab 23 Hr prior to hapten, 1 h, kidneys): 5.87 ± 0.81 %/gm; Conc 1 Hr Post Hapten, Liver ([4]; Ab 23 Hr prior to hapten, 1 h, liver): 6.35 ± 0.50 %/gm; Conc 1 Hr Post Hapten, Lungs ([4]; Ab 23 Hr prior to hapten, 1 h, lungs): 9.72 ± 0.24 %/gm; Conc 1 Hr Post Hapten, Muscle ([4]; Ab 23 Hr prior to hapten, 1 h, muscle): 1.44 ± 0.16 %/gm; Conc 1 Hr Post Hapten, Skin ([4]; Ab 23 Hr prior to hapten, 1 h, skin): 1.60 ± 0.20 %/gm; Conc 1 Hr Post Hapten, Spleen ([4]; Ab 23 Hr prior to hapten, 1 h, spleen): 3.03 ± 0.27 %/gm; Conc 1 Hr Post Hapten, Tumor ([4]; Ab 23 Hr prior to hapten, 1 h, tumor): 4.08 ± 0.51 %/gm; T/O Ratio, Blood ([4]; Ab 23 Hr prior to hapten, 1 h, tumor/blood): 0.17; T/O Ratio, Bone ([4]; Ab 23 Hr prior to hapten, 1 h, tumor/bone): 2.59; T/O Ratio, Gut ([4]; Ab 23 Hr prior to hapten, 1 h, tumor/gut): 2.73; T/O Ratio, Heart ([4]; Ab 23 Hr prior to hapten, 1 h, tumor/heart): 0.76; T/O Ratio, Kidneys ([4]; Ab 23 Hr prior to hapten, 1 h, tumor/kidneys): 0.70; T/O Ratio, Liver ([4]; Ab 23 Hr prior to hapten, 1 h, tumor/liver): 0.64; T/O Ratio, Lungs ([4]; Ab 23 Hr prior to hapten, 1 h, tumor/lungs): 0.42; T/O Ratio, Muscle ([4]; Ab 23 Hr prior to hapten, 1 h, tumor/muscle): 2.84; T/O Ratio, Skin ([4]; Ab 23 Hr prior to hapten, 1 h, tumor/skin): 2.57; T/O Ratio, Spleen ([4]; Ab 23 Hr prior to hapten, 1 h, tumor/spleen): 1.36; tumor uptake and tumor/organ uptake ratios (in words) ([4]; compared with coadministration of antibody and In compound): lower levels of tumor uptake and lower tumor/organ uptake ratios; Conc 3 Hrs Post Hapten, Blood ([5]; Ab 25 Hr, blocking agent 1 Hr prior to hapten, 3 h, blood): 0.95 ± 0.44 %/gm; Conc 3 Hrs Post Hapten, Bone ([5]; Ab 25 Hr, blocking agent 1 Hr prior to hapten, 3 h, bone): 1.50 ± 0.37 %/gm; Conc 3 Hrs Post Hapten, Gut ([5]; Ab 25 Hr, blocking agent 1 Hr prior to hapten, 3 h, gut): 2.66 ± 0.61 %/gm; Conc 3 Hrs Post Hapten, Heart ([5]; Ab 25 Hr, blocking agent 1 Hr prior to hapten, 3 h, heart): 0.92 ± 0.29 %/gm; Conc 3 Hrs Post Hapten, Kidneys ([5]; Ab 25 Hr, blocking agent 1 Hr prior to hapten, 3 h, kidneys): 1.10 ± 0.16 %/gm; Conc 3 Hrs Post Hapten, Liver ([5]; Ab 25 Hr, blocking agent 1 Hr prior to hapten, 3 h, liver): 0.87 ± 0.39 %/gm; Conc 3 Hrs Post Hapten, Lungs ([5]; Ab 25 Hr, blocking agent 1 Hr prior to hapten, 3 h, lungs): 2.55 ± 0.24 %/gm; Conc 3 Hrs Post Hapten, Muscle ([5]; Ab 25 Hr, blocking agent 1 Hr prior to hapten, 3 h, muscle): 3.48 ± 0.77 %/gm; Conc 3 Hrs Post Hapten, Skin ([5]; Ab 25 Hr, blocking agent 1 Hr prior to hapten, 3 h, skin): 4.86 ± 0.45 %/gm; Conc 3 Hrs Post Hapten, Spleen ([5]; Ab 25 Hr, blocking agent 1 Hr prior to hapten, 3 h, spleen): 0.21 ± 0.04 %/gm; Conc 3 Hrs Post Hapten, Tumor ([5]; Ab 25 Hr, blocking agent 1 Hr prior to hapten, 3 h, tumor): 7.72 ± 1.35 %/gm; In levels in blood and internal organs relative to tumor (in words) ([5]; after clearing agent): In levels in the blood and internal organs was greatly reduced relative to the levels concentrated in the tumor; T/O Ratio, Blood ([5]; blocking agent 1 Hr prior to hapten, 3 h, tumor/blood): 9.20; T/O Ratio, Bone ([5]; blocking agent 1 Hr prior to hapten, 3 h, tumor/bone): 5.40; T/O Ratio, Gut ([5]; blocking agent 1 Hr prior to hapten, 3 h, tumor/gut): 2.97; T/O Ratio, Heart ([5]; blocking agent 1 Hr prior to hapten, 3 h, tumor/heart): 8.71; T/O Ratio, Kidneys ([5]; blocking agent 1 Hr prior to hapten, 3 h, tumor/kidneys): 7.04; T/O Ratio, Liver ([5]; blocking agent 1 Hr prior to hapten, 3 h, tumor/liver): 10.21; T/O Ratio, Lungs ([5]; blocking agent 1 Hr prior to hapten, 3 h, tumor/lungs): 3.02; T/O Ratio, Muscle ([5]; blocking agent 1 Hr prior to hapten, 3 h, tumor/muscle): 2.33; T/O Ratio, Skin ([5]; blocking agent 1 Hr prior to hapten, 3 h, tumor/skin): 1.61; T/O Ratio, Spleen ([5]; blocking agent 1 Hr prior to hapten, 3 h, tumor/spleen): 38.03

Question: For `O=C([O-])CN(CC(=O)[O-])CC(Cc1ccc(NC(=O)CSCCCCS)cc1)N(CC(=O)[O-])CC(=O)[O-].[111In+3]` (stereo not shown) [TBEDTA-^111 In], which “retained after 24 hours, about 180 μg antibody” value ([6]; initial dose about 180 μg antibody) is on record?
Answer: The value was “more than 30%”.

Question: And the “retained after 24 hours, about 800 μg antibody” value ([6]; initial dose about 800 μg antibody)?
Answer: Its value is “greater than 70%”.

Question: Which “binding to avidin (in words)” value (avidin) does the source give for `O=C(O)CN(CC(=O)O)CC(Cc1ccc(NC(=O)CNC(=O)CCCC[C@@H]2SC[C@@H]3NC(=O)N[C@@H]32)cc1)N(CC(=O)O)CC(=O)O` (stereo partly shown) [biotinylated glycineamidobenzyl EDTA] here?
Answer: The value was “bind with high affinity to avidin”.
